# Measurements as given in the supplement of paper PMC11208160.
# Assay: recombinant UMI read abundance after kanamycin selection (control-corrected) (log10(CPM+1)); higher = more efficient recombination; extreme values may be limits of the assay; sequences stand for … in AGTGCAGAGAAAATCGGCCAGTTTTCTCTGCCTGCAGTCCGCATGCCGTGGGACCCCTTGGGTTCTAACCTGTTGCCTAGATTTATGCAGCGGACTGCCTTTCTCCCAAAGTGATAAACCGG…AGGTTGGTTTCACT; site = the 11-nt donor
# Procedure, shortened: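 The measure is log10(CPM+1) for recombinant UMIs. These were PCR-amplified across the donor–target junction and sequenced after Escherichia coli carrying a donor and donor-binding-loop pair library and a target plasmid with T7-inducible IS621 bridge recombinase was plated on IPTG (0.07 mM) plus kanamycin or unselected. CPM were averaged over two replicates and scaled by control-derived factors.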
# 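Also: IS621 bridge recombinase in Escherichia coli cells against a fixed T5 target plasmid.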
row,Sequence,recombinant UMI read abundance (log10)
1,CAAGTCCCATGGACCGGTTTTCCCGGTAATCCGTATTTGCT (site CAACTCCCTAG),0.843
2,CAAGTCCCATGGACCGGTTTTCCCGGTAATCCGTATTTGCT (site CAAGTCCCTAG),1.92
3,CAAGTCCCATGGACCGGTTTTCCCGGTAATCCGTATTTGCT (site CAATTCCCTAG),0
4,CAAGTCGCATGGACCGGTTTTCCCGGTAATCCGTATTTGGG (site CAAGTCACTCC),0.0586
5,CAAGTCGCATGGACCGGTTTTCCCGGTAATCCGTATTTGGG (site CAAGTCCCTCC),0.554
6,CAAGTCGCATGGACCGGTTTTCCCGGTAATCCGTATTTGGG (site CAAGTCGCTCC),0.908
7,CAAGTCGCATGGACCGGTTTTCCCGGTAATCCGTATTTGGG (site CAAGTCTCTCC),1.46
8,CAAGTCTCATGGACCGGTTTTCCCGGTAATCCGTATTTGGG (site CAAGTCACTCC),0.0252
9,CAAGTCTCATGGACCGGTTTTCCCGGTAATCCGTATTTGGG (site CAAGTCCCTCC),0.019
10,CAAGTCTCATGGACCGGTTTTCCCGGTAATCCGTATTTGGG (site CAAGTCGCTCC),0.02
11,CAAGTCTCATGGACCGGTTTTCCCGGTAATCCGTATTTGGG (site CAAGTCTCTCC),0.916
12,CAAGTGACATGGACCGGTTTTCCCGGTAATCCGTATTTGGG (site CAAGTAACTCC),1.09
13,CAAGTGACATGGACCGGTTTTCCCGGTAATCCGTATTTGGG (site CAAGTCACTCC),0.00913
14,CAAGTGACATGGACCGGTTTTCCCGGTAATCCGTATTTGGG (site CAAGTGACTCC),0.246
15,CAAGTGACATGGACCGGTTTTCCCGGTAATCCGTATTTGGG (site CAAGTTACTCC),0.48
16,CAATACGCATGGACCGGTTTTCCCGGTAATCCGTATTTGAT (site CAATACGCTAT),2.03
17,CAATACTCATGGACCGGTTTTCCCGGTAATCCGTATTTGAA (site CAATACTCTTT),3.09
18,CAATACTCATGGACCGGTTTTCCCGGTAATCCGTATTTGAA (site CAATCCTCTTT),0
19,CAATACTCATGGACCGGTTTTCCCGGTAATCCGTATTTGAA (site CAATGCTCTTT),0.0128
20,CAATACTCATGGACCGGTTTTCCCGGTAATCCGTATTTGAA (site CAATTCTCTTT),0
21,CAATCACCATGGACCGGTTTTCCCGGTAATCCGTATTTGCT (site CAATCACCTAG),0.00562
22,CAATCACCATGGACCGGTTTTCCCGGTAATCCGTATTTGCT (site CGATCATCTAG),0
23,CAATCATCATGGACCGGTTTTCCCGGTAATCCGTATTTGCT (site CAATCATCTAG),2.15
24,CAATCATCATGGACCGGTTTTCCCGGTAATCCGTATTTGCT (site CCATCATCTAG),0.883
25,CAATCATCATGGACCGGTTTTCCCGGTAATCCGTATTTGCT (site CGATCATCTAG),0.258

row,Sequence,recombinant UMI read abundance (log10)
1,CAATCATCATGGACCGGTTTTCCCGGTAATCCGTATTTGCT (site CTATCATCTAG),0.404
2,CAATCTGCATGGACCGGTTTTCCCGGTAATCCGTATTTGCT (site CAATCTGCTAG),0.515
3,CAATGCCCATGGACCGGTTTTCCCGGTAATCCGTATTTGAA (site CAATGCACTTT),0.00911
4,CAATGCCCATGGACCGGTTTTCCCGGTAATCCGTATTTGAA (site CAATGCCCTTT),1
5,CAATGCCCATGGACCGGTTTTCCCGGTAATCCGTATTTGAA (site CAATGCGCTTT),0.00922
6,CAATGCCCATGGACCGGTTTTCCCGGTAATCCGTATTTGAA (site CAATGCTCTTT),1.62
7,CAATGCTCATGGACCGGTTTTCCCGGTAATCCGTATTTGAG (site CAATGCTCTAT),1.46
8,CAATGCTCATGGACCGGTTTTCCCGGTAATCCGTATTTGAG (site CAATGCTCTCT),2.2
9,CAATGCTCATGGACCGGTTTTCCCGGTAATCCGTATTTGAG (site CAATGCTCTGT),0.535
10,CAATGCTCATGGACCGGTTTTCCCGGTAATCCGTATTTGAG (site CAATGCTCTTT),0.812
11,CAATGGCCATGGACCGGTTTTCCCGGTAATCCGTATTTGCG (site CAATGGCCTCG),0.00456
12,CAATGGTCATGGACCGGTTTTCCCGGTAATCCGTATTTGAA (site CAATGATCTTT),2.68
13,CAATGGTCATGGACCGGTTTTCCCGGTAATCCGTATTTGAA (site CAATGCTCTTT),0.00506
14,CAATGGTCATGGACCGGTTTTCCCGGTAATCCGTATTTGAA (site CAATGGTCTTT),2.39
15,CAATGGTCATGGACCGGTTTTCCCGGTAATCCGTATTTGAA (site CAATGTTCTTT),0
16,CAATGTTCATGGACCGGTTTTCCCGGTAATCCGTATTTGAA (site CAATGATCTTT),0.287
17,CAATGTTCATGGACCGGTTTTCCCGGTAATCCGTATTTGAA (site CAATGCTCTTT),0.0108
18,CAATGTTCATGGACCGGTTTTCCCGGTAATCCGTATTTGAA (site CAATGGTCTTT),0.0106
19,CAATGTTCATGGACCGGTTTTCCCGGTAATCCGTATTTGAA (site CAATGTTCTTT),2.11
20,CAATTAACATGGACCGGTTTTCCCGGTAATCCGTATTTGCT (site CAATTAACTAG),0.982
21,CAATTCACATGGACCGGTTTTCCCGGTAATCCGTATTTGGG (site CAAATCACTCC),0.839
22,CAATTCACATGGACCGGTTTTCCCGGTAATCCGTATTTGGG (site CAACTCACTCC),0.251
23,CAATTCACATGGACCGGTTTTCCCGGTAATCCGTATTTGGG (site CAAGTCACTCC),0.0135
24,CAATTCACATGGACCGGTTTTCCCGGTAATCCGTATTTGGG (site CAATTCACTCC),0.0754
25,CAATTCCCATGGACCGGTTTTCCCGGTAATCCGTATTTGCA (site CAATTCCCTAG),0

row,Sequence,recombinant UMI read abundance (log10)
1,CAATTCCCATGGACCGGTTTTCCCGGTAATCCGTATTTGCA (site CAATTCCCTCG),0.00698
2,CAATTCCCATGGACCGGTTTTCCCGGTAATCCGTATTTGCA (site CAATTCCCTGG),0
3,CAATTCCCATGGACCGGTTTTCCCGGTAATCCGTATTTGCA (site CAATTCCCTTG),1.27
4,CAATTCTCATGGACCGGTTTTCCCGGTAATCCGTATTTGCT (site CAATTCACTAG),0.75
5,CAATTCTCATGGACCGGTTTTCCCGGTAATCCGTATTTGCT (site CAATTCCCTAG),0.421
6,CAATTCTCATGGACCGGTTTTCCCGGTAATCCGTATTTGCT (site CAATTCGCTAG),0
7,CAATTCTCATGGACCGGTTTTCCCGGTAATCCGTATTTGCT (site CAATTCTCTAG),2.19
8,CACAACACATGGACCGGTTTTCCCGGTAATCCGTATTTGAC (site CACAACACTGT),2.79
9,CACATGGCATGGACCGGTTTTCCCGGTAATCCGTATTTGGA (site CACATGGCTTC),0.785
10,CACATGGCATGGACCGGTTTTCCCGGTAATCCGTATTTGGA (site CACCTGGCTTC),0.346
11,CACATGGCATGGACCGGTTTTCCCGGTAATCCGTATTTGGA (site CACGTGGCTTC),0.414
12,CACATGGCATGGACCGGTTTTCCCGGTAATCCGTATTTGGA (site CACTTGGCTTC),0.388
13,CACATTGCATGGACCGGTTTTCCCGGTAATCCGTATTTGGT (site CACATTGCTAC),1.69
14,CACCATGCATGGACCGGTTTTCCCGGTAATCCGTATTTGCG (site CACCATGCTCG),1.28
15,CACCCCTCATGGACCGGTTTTCCCGGTAATCCGTATTTGCC (site CACACCTCTGG),0
16,CACCCCTCATGGACCGGTTTTCCCGGTAATCCGTATTTGCC (site CACCCCTCTGG),2.71
17,CACCCCTCATGGACCGGTTTTCCCGGTAATCCGTATTTGCC (site CACGCCTCTGG),0
18,CACCCCTCATGGACCGGTTTTCCCGGTAATCCGTATTTGCC (site CACTCCTCTGG),1.21
19,CACCGATCATGGACCGGTTTTCCCGGTAATCCGTATTTGGC (site CACCGATCTGC),3.71
20,CACCGCCCATGGACCGGTTTTCCCGGTAATCCGTATTTGTT (site CACAGCCCTAA),0.00423
21,CACCGCCCATGGACCGGTTTTCCCGGTAATCCGTATTTGTT (site CACCGCCCTAA),0.033
22,CACCGCCCATGGACCGGTTTTCCCGGTAATCCGTATTTGTT (site CACGGCCCTAA),0.0192
23,CACCGCCCATGGACCGGTTTTCCCGGTAATCCGTATTTGTT (site CACTGCCCTAA),0.0163
24,CACCGCGCATGGACCGGTTTTCCCGGTAATCCGTATTTGTC (site CACCGCGCTGA),2.33
25,CACCGTACATGGACCGGTTTTCCCGGTAATCCGTATTTGAT (site CACCGTACTAT),1.95
